Where only a bound is given, the exact number is not on record here.

For the assay, the target named is EGFR (human) (UniProt P00533). The note with it: a431.
Sequence of EGFR (human) (P00533 whole entry, looked up): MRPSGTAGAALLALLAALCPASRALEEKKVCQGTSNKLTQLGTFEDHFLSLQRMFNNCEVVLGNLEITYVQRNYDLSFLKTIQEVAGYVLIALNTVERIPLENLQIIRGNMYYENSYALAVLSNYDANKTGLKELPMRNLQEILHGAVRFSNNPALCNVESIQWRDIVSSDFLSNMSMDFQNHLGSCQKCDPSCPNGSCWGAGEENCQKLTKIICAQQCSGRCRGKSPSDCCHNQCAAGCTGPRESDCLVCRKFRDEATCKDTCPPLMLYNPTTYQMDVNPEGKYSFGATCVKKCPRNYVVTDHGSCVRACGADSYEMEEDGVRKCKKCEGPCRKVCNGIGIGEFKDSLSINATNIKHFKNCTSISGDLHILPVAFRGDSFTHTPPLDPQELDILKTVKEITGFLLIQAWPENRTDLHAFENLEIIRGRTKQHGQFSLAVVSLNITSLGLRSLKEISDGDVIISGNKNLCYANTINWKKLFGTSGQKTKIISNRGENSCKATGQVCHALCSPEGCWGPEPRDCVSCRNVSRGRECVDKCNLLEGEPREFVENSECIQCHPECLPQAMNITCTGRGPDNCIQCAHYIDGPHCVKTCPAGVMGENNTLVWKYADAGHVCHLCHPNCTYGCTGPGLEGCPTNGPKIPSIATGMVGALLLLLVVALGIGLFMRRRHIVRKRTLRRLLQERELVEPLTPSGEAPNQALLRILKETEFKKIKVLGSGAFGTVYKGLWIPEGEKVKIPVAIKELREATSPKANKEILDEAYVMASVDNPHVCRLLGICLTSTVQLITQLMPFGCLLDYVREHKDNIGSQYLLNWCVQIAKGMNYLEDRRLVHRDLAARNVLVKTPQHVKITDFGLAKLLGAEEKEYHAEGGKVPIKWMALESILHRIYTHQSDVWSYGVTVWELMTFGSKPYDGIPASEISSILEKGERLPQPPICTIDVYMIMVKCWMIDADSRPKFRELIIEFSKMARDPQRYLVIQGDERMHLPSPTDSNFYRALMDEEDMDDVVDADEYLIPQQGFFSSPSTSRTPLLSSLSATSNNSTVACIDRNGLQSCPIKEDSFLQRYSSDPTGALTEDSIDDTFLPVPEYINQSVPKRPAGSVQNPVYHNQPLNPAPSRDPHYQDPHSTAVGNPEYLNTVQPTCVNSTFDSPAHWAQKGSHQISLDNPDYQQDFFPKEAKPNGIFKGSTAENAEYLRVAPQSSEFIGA

The compound `CN(C)[C@H]1CCN(CCc2ccc3c(c2)sc2ncnc(Nc4ccc(OCc5cccc(F)c5)c(Cl)c4)c23)C1` returned an IC50 not above 5 µM.
Turning to `OCCNCCc1ccc2c(c1)sc1ncnc(Nc3ccc(OCc4cccc(F)c4)c(Cl)c3)c12`, the IC50 was not above 5 µM.
`CS(=O)(=O)CCNC(=O)Cc1ccc2c(c1)sc1ncnc(Nc3ccc4c(cnn4Cc4cccc(F)c4)c3)c12` gave an IC50 not above 5 µM.
Under `Fc1cccc(COc2ccc(Nc3ncnc4sc5cc(OCCN6CCOCC6)ccc5c34)cc2Cl)c1` stands not above 5 µM; under `CS(=O)(=O)CCNC(=O)CCc1ccc2c(c1)sc1ncnc(Nc3ccc(OCc4cccc(F)c4)c(Cl)c3)c12`, not above 5 µM.
The compound `CCN1CCN(C(=O)/C=C/c2ccc3c(c2)sc2ncnc(Nc4ccc(OCc5cccc(F)c5)c(Cl)c4)c23)CC1` came in with an IC50 not above 5 µM.
Under `OC[C@H](O)COc1ccc2c(c1)sc1ncnc(Nc3ccc(OCc4cccc(F)c4)c(Cl)c3)c12` stands not above 5 µM.
To `CN(C)CCNC(=O)Cc1ccc2c(c1)sc1ncnc(Nc3ccc4c(cnn4Cc4cccc(F)c4)c3)c12` belongs not above 5 µM; to `Clc1cc(Nc2ncnc3sc4cc(CCBr)ccc4c23)ccc1OCc1ccccn1`, not above 5 µM.
In turn, `COCCN1CCN(CCc2ccc3c(c2)sc2ncnc(Nc4ccc(OCc5cccc(F)c5)c(Cl)c4)c23)CC1` came in with an IC50 not above 5 µM.
In the case of `COCCN(CCOC)CCc1ccc2c(c1)sc1ncnc(Nc3ccc(OCc4cccc(F)c4)c(Cl)c3)c12`, the IC50 was not above 5 µM.
Consider `Fc1cccc(Cn2ncc3cc(Nc4ncnc5sc6cc(CCN7CCOCC7)ccc6c45)ccc32)c1`, for which the IC50 was not above 5 µM.
With `COC[C@@H]1CCCN1C(=O)Cc1ccc2c(c1)sc1ncnc(Nc3ccc(OCc4ccccn4)c(Cl)c3)c12`, the IC50 is not above 5 µM.
For the compound `OCC(O)c1ccc2c(c1)sc1ncnc(Nc3ccc(OCc4cccc(F)c4)c(Cl)c3)c12` (centres undefined), the 50% inhibitory concentration (IC50) is not above 5 µM.
For the compound `CN1CCN(C(=O)Cc2ccc3c(c2)sc2ncnc(Nc4ccc(OCc5cccc(F)c5)c(Cl)c4)c23)CC1`, the IC50 is not above 5 µM.
Take `COCCNCCc1ccc2c(c1)sc1ncnc(Nc3ccc(OCc4ccccn4)c(Cl)c3)c12`: the IC50 is not above 5 µM.
Compound `OC[C@H](O)[C@@H](O)c1ccc2c(c1)sc1ncnc(Nc3ccc(OCc4cccc(F)c4)c(Cl)c3)c12` returned an IC50 not above 5 µM.
`OC[C@H](O)c1ccc2c(c1)sc1ncnc(Nc3ccc(OCc4cccc(F)c4)c(Cl)c3)c12` had an IC50 not above 5 µM.
To `OC[C@@H](O)COc1ccc2c(c1)sc1ncnc(Nc3ccc(OCc4cccc(F)c4)c(Cl)c3)c12` belongs not above 5 µM; to `OC[C@H](O)c1ccc2c(c1)sc1ncnc(Nc3ccc4c(cnn4Cc4cccc(F)c4)c3)c12`, not above 5 µM; to `OC[C@H](O)COc1ccc2c(c1)sc1ncnc(Nc3ccc(OCc4ccccn4)c(Cl)c3)c12`, not above 5 µM.
`OCC(O)C(O)c1ccc2c(c1)sc1ncnc(Nc3ccc(OCc4cccc(F)c4)c(Cl)c3)c12` (centres undefined) came in with an IC50 not above 5 µM.
`Fc1cccc(COc2ccc(Nc3ncnc4sc5cc(OCCCN6CCOCC6)ccc5c34)cc2Cl)c1` had an IC50 not above 5 µM.
Compound `CO[C@H]1CCN(CCc2ccc3c(c2)sc2ncnc(Nc4ccc(OCc5cccc(F)c5)c(Cl)c4)c23)C1` yielded an IC50 not above 5 µM.
As to `CN(C)[C@@H]1CCN(C(=O)Cc2ccc3c(c2)sc2ncnc(Nc4ccc(OCc5cscn5)c(Cl)c4)c23)C1`, the IC50 was not above 5 µM.
Compound `COC(=O)/C=C/c1ccc2c(c1)sc1ncnc(Nc3ccc(OCc4cccc(F)c4)c(Cl)c3)c12` displayed an IC50 not above 5 µM.
Under `Fc1cccc(COc2ccc(Nc3ncnc4sc5cc(CCN6CCCCC6)ccc5c34)cc2Cl)c1` stands not above 5 µM; under `OCCc1ccc2c(c1)sc1ncnc(Nc3ccc4c(cnn4Cc4ccccn4)c3)c12`, not above 5 µM; under `CN1CCN(C(=O)/C=C/c2ccc3c(c2)sc2ncnc(Nc4ccc(OCc5cccc(F)c5)c(Cl)c4)c23)CC1`, not above 5 µM.
`O=C(Cc1ccc2c(c1)sc1ncnc(Nc3ccc(OCc4ccccn4)c(Cl)c3)c12)N1CCC[C@@H]1CO`: the IC50 is not above 5 µM.
`COCCNCCc1ccc2c(c1)sc1ncnc(Nc3ccc(OCc4cccc(F)c4)c(Cl)c3)c12`: the IC50 is not above 5 µM.
On to `CN1CCN(C(=O)Cc2ccc3c(c2)sc2ncnc(Nc4ccc5c(cnn5Cc5cccc(F)c5)c4)c23)CC1`, for which the IC50 was not above 5 µM.
The compound `NS(=O)(=O)OCCc1ccc2c(c1)sc1ncnc(Nc3ccc(OCc4ccccn4)c(Cl)c3)c12` gave a half-inhibitory concentration (IC50) not above 5 µM.
With `O=C(Cc1ccc2c(c1)sc1ncnc(Nc3ccc4c(cnn4Cc4cccc(F)c4)c3)c12)NC1CN2CCC1CC2` (centres undefined), the IC50 was not above 5 µM.
Take `Fc1cccc(Cn2ncc3cc(Nc4ncnc5sc6cc(N7CCNCC7)ccc6c45)ccc32)c1`: the IC50 was not above 5 µM.
On to `OCC(O)c1ccc2c(c1)sc1ncnc(Nc3ccc(OCc4ccccn4)c(Cl)c3)c12` (centres undefined), for which the IC50 was not above 5 µM.
To `OCCc1ccc2c(c1)sc1ncnc(Nc3ccc(OCc4cccc(F)c4)c(Cl)c3)c12` belongs not above 5 µM; to `OCC(O)c1ccc2c(c1)sc1ncnc(Nc3ccc4c(cnn4Cc4cccc(F)c4)c3)c12` (centres undefined), not above 5 µM; to `OCCc1ccc2c(c1)sc1ncnc(Nc3ccc4c(cnn4Cc4cccc(F)c4)c3)c12`, not above 5 µM.
In the case of `OCCN(CCO)CCc1ccc2c(c1)sc1ncnc(Nc3ccc(OCc4cccc(F)c4)c(Cl)c3)c12`, the IC50 is not above 5 µM.
Regarding `Fc1cccc(COc2ccc(Nc3ncnc4sc5cc(CCBr)ccc5c34)cc2Cl)c1`, the IC50 is not above 5 µM.
On to `COC[C@H]1CCCN1CCc1ccc2c(c1)sc1ncnc(Nc3ccc(OCc4cccc(F)c4)c(Cl)c3)c12`, for which the IC50 is not above 5 µM.
For the compound `CN(C)[C@H]1CCN(C(=O)Cc2ccc3c(c2)sc2ncnc(Nc4ccc5c(cnn5Cc5cccc(F)c5)c4)c23)C1`, the IC50 is not above 5 µM.
For the compound `CN(C)CCNC(=O)CCc1ccc2c(c1)sc1ncnc(Nc3ccc(OCc4cccc(F)c4)c(Cl)c3)c12`, the IC50 is not above 5 µM.
Under `CN(C)[C@H]1CCN(C(=O)Cc2ccc3c(c2)sc2ncnc(Nc4ccc(OCc5cscn5)c(Cl)c4)c23)C1` stands not above 5 µM; under `CN(C)[C@H]1CCN(C(=O)/C=C/c2ccc3c(c2)sc2ncnc(Nc4ccc(OCc5cccc(F)c5)c(Cl)c4)c23)C1`, not above 5 µM; under `OC[C@@H](O)c1ccc2c(c1)sc1ncnc(Nc3ccc(OCc4cccc(F)c4)c(Cl)c3)c12`, not above 5 µM.
`CCNCCc1ccc2c(c1)sc1ncnc(Nc3ccc(OCc4ccccn4)c(Cl)c3)c12` gave an IC50 not above 5 µM.
To `OCC(CO)c1ccc2c(c1)sc1ncnc(Nc3ccc(OCc4cccc(F)c4)c(Cl)c3)c12` belongs not above 5 µM; to `COCCN(CCOC)C(=O)Cc1ccc2c(c1)sc1ncnc(Nc3ccc(OCc4ccccn4)c(Cl)c3)c12`, not above 5 µM.
Compound `CS(=O)(=O)CCNCCc1ccc2c(c1)sc1ncnc(Nc3ccc(OCc4ccccn4)c(Cl)c3)c12` registered an IC50 not above 5 µM.
`O=C(Cc1ccc2c(c1)sc1ncnc(Nc3ccc(OCc4cccc(F)c4)c(Cl)c3)c12)N1CCOCC1` yielded an IC50 not above 5 µM.
Regarding `CN(C)[C@H]1CCN(C(=O)CCc2ccc3c(c2)sc2ncnc(Nc4ccc(OCc5cccc(F)c5)c(Cl)c4)c23)C1`, the IC50 was not above 5 µM.
The compound `OC[C@@H](O)[C@H](O)c1ccc2c(c1)sc1ncnc(Nc3ccc(OCc4cccc(F)c4)c(Cl)c3)c12` gave an IC50 not above 5 µM.
In turn, `O=C(Cc1ccc2c(c1)sc1ncnc(Nc3ccc(OCc4cccc(F)c4)c(Cl)c3)c12)N1CCNCC1` returned an IC50 not above 5 µM.
For `Fc1cccc(COc2ccc(Nc3ncnc4sc5cc(CCN6CCSCC6)ccc5c34)cc2Cl)c1`, the IC50 is not above 5 µM.
The compound `Fc1cccc(COc2ccc(Nc3ncnc4sc5cc(CCN6CCCC6)ccc5c34)cc2Cl)c1` showed an IC50 not above 5 µM.
Regarding `CN1CCN(C(=O)Cc2ccc3c(c2)sc2ncnc(Nc4ccc(OCc5cscn5)c(Cl)c4)c23)CC1`, the IC50 was not above 5 µM.
Under `CN1CCN(c2ccc3c(c2)sc2ncnc(Nc4ccc(OCc5ccccn5)c(Cl)c4)c23)CC1` stands not above 5 µM; under `CN1CCN(CCc2ccc3c(c2)sc2ncnc(Nc4ccc(OCc5ccccn5)c(Cl)c4)c23)CC1`, not above 5 µM; under `CN1CCN(CCc2ccc3c(c2)sc2ncnc(Nc4ccc(OCc5cccc(F)c5)c(Cl)c4)c23)CC1`, not above 5 µM.
In the case of `OCCc1ccc2c(c1)sc1ncnc(Nc3ccc(OCc4ccccn4)c(Cl)c3)c12`, the IC50 was not above 5 µM.
To `O=C(/C=C/c1ccc2c(c1)sc1ncnc(Nc3ccc(OCc4cccc(F)c4)c(Cl)c3)c12)N1CCOCC1` belongs not above 5 µM; to `O=C(Cc1ccc2c(c1)sc1ncnc(Nc3ccc(OCc4cccc(F)c4)c(Cl)c3)c12)NCCOCCO`, not above 5 µM; to `Fc1cccc(COc2ccc(Nc3ncnc4sc5cc(CCN6CCNCC6)ccc5c34)cc2Cl)c1`, not above 5 µM.
Consider `CN1CCN(CCc2ccc3c(c2)sc2ncnc(Nc4ccc5c(cnn5Cc5cccc(F)c5)c4)c23)CC1`, for which the IC50 is not above 5 µM.
In the case of `O=C(Cc1ccc2c(c1)sc1ncnc(Nc3ccc(OCc4cccc(F)c4)c(Cl)c3)c12)NCCN1CCOCC1`, the concentration for half-maximal inhibition (IC50) is not above 5 µM.
Under `OC[C@@H](O)c1ccc2c(c1)sc1ncnc(Nc3ccc4c(cnn4Cc4cccc(F)c4)c3)c12` stands not above 5 µM; under `Fc1cccc(COc2ccc(Nc3ncnc4sc5cc(OCCN6CCCC6)ccc5c34)cc2Cl)c1`, not above 5 µM.

What is called IC50 is the midpoint of a concentration-inhibition curve. Read a low IC50 as inhibition by little substance.
